Measurements: patent US12583938B2, “Protein biomarker and uses thereof” (Daiichi Sankyo Co., Ltd., priority 2013, dated 2026)
Entries after “also recorded” stand apart in the source; their conditions may differ. Like-named read-outs stand apart in the source and are kept apart here.

Key:
[1] = test system: Stage IIIb/IV NSCLC; conditions: for On-Study Death / Primary Cause of On-Study Death: Adverse Event / Primary Cause of On-Study Death: Disease Progression / Primary Reason for Discontinuing Study Treatment: Death / Primary Reason for Discontinuing Study Treatment: Progressive Disease (Radiographic Progression) / Primary Reason for Discontinuing Study Treatment: Adverse Event: Enrolled/Randomized Analysis Set; for OS: Subjects (%) with events / OS: Subjects (%) without events (censored) / PFS: Subjects (%) with events / PFS: Subjects (%) without events (censored) / Progression-Free Survival, Time to event, Median / Overall Survival, Time to event, Median: Full Analysis Set; for Progression-Free Survival, Time to event, Median / Overall Survival, Time to event, Median: Kaplan-Meier Estimate; for Overall Survival, Time to event, Median: preliminary; for HR for PFS (pooled dose vs placebo): soluble HRG high group, + erlotinib
Procedure: (§1) In both portions of the study, subjects received 150 mg of erlotinib orally once daily. […] Tumors were to be assessed every 6 weeks (±3 days) up to the first 24 weeks of the study, then every 12 weeks (±7 days) independent of treatment cycle.
An “HRG high” subject was defined as a subject with observed soluble HRG concentration of higher than 980 pg/mL, the Quartile 3 of the sample set. Soluble HRC concentration was measured by the improved ELISA method disclosed herein.
At the point of primary analysis, the treatment assignment for all subjects was unblinded to designated study personnel for analysis after data were reconciled and cleaned, and a snapshot of the clean database was created. To minimize potential bias, individual treatment assignment was not divulged to subjects or Investigators until study closure.
All efficacy analyses were performed on the full analysis set, which includes all subjects in the randomized analysis set who received at least one dose of randomized study medication. The primary efficacy endpoint was PFS. PFS is defined as the time from the date of randomization to the earlier of the dates of the first objective documentation of radiographic disease progression or death due to any cause. A subject who was alive with no objective documentation of (radiographic) disease progression by the data cut-off date was to be censored at the date of the last evaluable tumor assessment. The key secondary efficacy endpoint, overall survival, was defined as the time from the date of randomization to death due to any cause and was analyzed in the same manner as the primary efficacy endpoint PFS.
Kaplan-Meier curves were generated for PFS and used to calculate medians and 95% CIs for each treatment group.
The stratification factors included histology (Adenocarcinoma vs Non-Adenocarcinoma) and best response to prior therapy (CR/PR/SD vs PD). […] Cox's proportional hazards model with the same stratification factors used for the stratified log-rank test.
Unless otherwise indicated, tog-rank p-values and HRs for PFS and OS were based on the primary analysis adjusted for the stratification factors at randomization as described above.

[2] = test system: HER3 phosphorylation in BT474 cells; assay: in vitro HER3 phosphorylation by Western blotting; assay type: cell-based, human; conditions: FIG. 10
Procedure: FIG. 10 depicts Western blots showing that U3-1287 can block […] basal HER3 phosphorylation.
(§2) U3-1287 efficacy was determined in vitro by measuring reduction of phospho-HER3 and phospho-AKT levels.

[3] = test system: ZR75-1; assay: human cancer xenograft in mice, tumor growth inhibition; assay type: in vivo; conditions: ZR75-1 xenograft, BC FISH + ve, HRG (WB) −
Procedure: (§3) The HRG biomarker was identified by analysing the anti-tumor activity of the anti-HER3 antibody U3-1287 on various human cancer xenografts in vivo and analysis of the expression of HRG of these cell lines in vitro. Human tumor cell lines of various indications were grown as xenografts in mice and treated with the anti-HER3 antibody U3-1287 for several weeks. Inhibition of tumor growth was analysed by comparing the tumor volumes of control mice and mice treated with U3-1287. Human tumor cell lines were grown in vitro and analysed for HRG protein expression by Western blotting.

[4] = test system: HT-29; assay: as above; assay type: in vivo; conditions: HT-29 xenograft, Colon, HRG (WB) −
Procedure: as §3

[5] = test system: MDA-MB453; assay: as above; assay type: in vivo; conditions: BC FISH + ve, HRG (WB) −
Procedure: as §3

[6] = test system: BxPC3; assay: as above; assay type: in vivo; conditions: Pancreas, HRG (WB) +
Procedure: as §3

[7] = test system: A549; assay: as above; assay type: in vivo; conditions: NSCLC, HRG (WB) +
Procedure: as §3

[8] = test system: A375; assay: as above; assay type: in vivo; conditions: Melanoma, HRG (WB) −
Procedure: as §3

[9] = test system: HCC 1569; assay: as above; assay type: in vivo; conditions: HCC 1569 xenograft, BC FISH + ve, HRG (WB) −
Procedure: as §3

[10] = test system: Sum225; assay: as above; assay type: in vivo; conditions: BC FISH + ve, HRG (WB) −
Procedure: as §3

[11] = test system: Calu-3; assay: as above; assay type: in vivo; conditions: Calu-3 xenograft, NSCLC, HRG (WB) +
Procedure: as §3

[12] = test system: NC-H1975; assay: as above; assay type: in vivo; conditions: NSCLC, HRG (WB) +
Procedure: as §3

[13] = test system: HT-144; assay: as above; assay type: in vivo; conditions: HT-144 xenograft, Melanoma, HRG (WB) −
Procedure: as §3

[14] = test system: NCI-H441; assay: as above; assay type: in vivo; conditions: NSCLC, HRG (WB) −
Procedure: as §3

[15] = test system: MCF-7; assay: as above; assay type: in vivo; conditions: MCF-7 xenograft, BC FISH + ve, HRG (WB) −
Procedure: as §3

[16] = test system: BT474; assay: as above; assay type: in vivo; conditions: BC FISH + ve, HRG (WB) −
Procedure: as §3

[17] = test system: FaDu; assay: as above; assay type: in vivo; conditions: Head&Neck, HRG (WB) +
Procedure: as §3

[18] = test system: MKN-45; assay: as above; assay type: in vivo; conditions: MKN-45 xenograft, Gastric, HRG (WB) −
Procedure: as §3

[19] = test system: HER3 phosphorylation in CaOV3 cells; assay: in vitro reduction of phospho-HER3 and phospho-AKT levels by Western blotting; assay type: cell-based, human; conditions: CaOV3, no basal HER3 activation, stimulated with exogenous heregulin; FIG. 9
Procedure: (§4) FIG. 9 depicts efficacy determined in vitro by measuring reduction of phospho-HER3 and phospho-AKT levels by Western blotting.
as §2

[20] = test system: HER3 phosphorylation in A549 cells; assay: as above; assay type: cell-based, human; conditions: A549, endogenously express heregulin; FIG. 9
Procedure: as §4, §2

[21] = test system: Stage IIIb/IV NSCLC; conditions: Phase 1b, 150 mg erlotinib daily + 18 mg/kg patritumab every 3 weeks, 7 subjects
Procedure: as §1

[22] = monotherapy Phase 1 study of patritumab; assay type: in vivo
Procedure: A higher maintenance dose level of 18 mg/kg was also included to accommodate the possible effect of reduced tumor tissue penetration in the clinical setting relative to animal models.

[23] = 9 mg/kg patritumab + erlotinib (N = 71)
[24] = 9 mg/kg patritumab + erlotinib (N = 72)
[25] = 18 mg/kg patritumab + erlotinib (N = 70)
[26] = 18 mg/kg patritumab + erlotinib (N = 72)

Compound: C#Cc1cccc(Nc2ncnc3cc(OCCOC)c(OCCOC)cc23)c1 [erlotinib, reference compound]
- On-Study Death ([1]; Placebo + erlotinib (N = 71)): 13 subjects
- Primary Cause of On-Study Death: Adverse Event ([1]; Placebo + erlotinib (N = 71)): 5 subjects
- Primary Cause of On-Study Death: Disease Progression ([1]; Placebo + erlotinib (N = 71)): 8 subjects
- Primary Reason for Discontinuing Study Treatment: Death ([1]; Placebo + erlotinib (N = 71)): 4 subjects
- Primary Reason for Discontinuing Study Treatment: Progressive Disease (Radiographic Progression) ([1]; Placebo + erlotinib (N = 71)): 50 subjects
- OS: Subjects (%) with events ([1]; Placebo + erlotinib (N = 71)): 48 (67.6%) subjects (%)
- OS: Subjects (%) without events (censored) ([1]; Placebo + erlotinib (N = 71)): 23 (32.4%) subjects (%)
- PFS: Subjects (%) with events ([1]; Placebo + erlotinib (N = 71)): 59 (83.1%) subjects (%)
- PFS: Subjects (%) without events (censored) ([1]; Placebo + erlotinib (N = 71)): 12 (16.9%) subjects (%)
- Progression-Free Survival, Time to event, Median ([1]; Placebo + erlotinib (N = 71)): 1.6 months
- Overall Survival, Time to event, Median ([1]; Placebo + erlotinib (N = 71)): 7.2 months
- number of subjects with the response being CR/PR ([1]; placebo + erlotinib): 4 (5.6%) subjects (%)

Compound: patritumab
- efficacy on HER3 phosphorylation ([2]; BT474+HRG (exogenously added heregulin)): could be overcome by exogenously added heregulin
- efficacy on basal HER3 phosphorylation ([2]; BT474 basal, do not express heregulin): no efficacy
- ligand-dependent basal HER3 phosphorylation ([2]; Western blots): can block
- OS: Subjects (%) with events [1, 23]: 46 (64.8%) subjects (%)
- OS: Subjects (%) without events (censored) [1, 23]: 25 (35.2%) subjects (%)
- PFS: Subjects (%) with events [1, 23]: 52 (73.2%) subjects (%)
- PFS: Subjects (%) without events (censored) [1, 23]: 19 (26.8%) subjects (%)
- Progression-Free Survival, Time to event, Median [1, 23]: 2.5 months
- Overall Survival, Time to event, Median [1, 23]: 6.3 months
- On-Study Death [1, 24]: 9 subjects
- Primary Cause of On-Study Death: Adverse Event [1, 24]: 4 subjects
- Primary Cause of On-Study Death: Disease Progression [1, 24]: 4 subjects
- Primary Reason for Discontinuing Study Treatment: Adverse Event [1, 24]: 6 subjects
- Primary Reason for Discontinuing Study Treatment: Death [1, 24]: 2 subjects
- Primary Reason for Discontinuing Study Treatment: Progressive Disease (Radiographic Progression) [1, 24]: 45 subjects
- OS: Subjects (%) with events [1, 25]: 54 (77.1%) subjects (%)
- OS: Subjects (%) without events (censored) [1, 25]: 16 (22.9%) subjects (%)
- PFS: Subjects (%) with events [1, 25]: 58 (82.9%) subjects (%)
- PFS: Subjects (%) without events (censored) [1, 25]: 12 (17.1%) subjects (%)
- Progression-Free Survival, Time to event, Median [1, 25]: 1.4 months
- Overall Survival, Time to event, Median [1, 25]: 5.3 months
- On-Study Death [1, 26]: 20 subjects
- Primary Cause of On-Study Death: Adverse Event [1, 26]: 11 subjects
- Primary Cause of On-Study Death: Disease Progression [1, 26]: 8 subjects
- Primary Reason for Discontinuing Study Treatment: Adverse Event [1, 26]: 7 subjects
- Primary Reason for Discontinuing Study Treatment: Death [1, 26]: 11 subjects
- Primary Reason for Discontinuing Study Treatment: Progressive Disease (Radiographic Progression) [1, 26]: 42 subjects
- number of subjects with the response being CR/PR ([1]; high-dose patritumab (18 mg/kg every 3 weeks) + erlotinib): 5 (7.1%) subjects (%)
- number of subjects with the response being CR/PR ([1]; low-dose patritumab (18 mg/kg loading, 9 mg/kg maintenance every 3 weeks) + erlotinib): 9 (12.9%) subjects (%)
- improvement in PFS or OS ([1]; patritumab with erlotinib compared to erlotinib plus placebo, full analysis set (unselected ITT population)): no significant improvement
- HR for PFS (pooled dose vs placebo) ([1]; HRG protein concentration cut-off 0 (median) pg/mL, n 66): 0.58
- HR for PFS (pooled dose vs placebo) ([1]; HRG protein concentration cut-off 1622.5 pg/mL, n 39): 0.31
- HR for PFS (pooled dose vs placebo) ([1]; HRG protein concentration cut-off 2000 pg/mL, n 34): 0.28
- HR for PFS (pooled dose vs placebo) ([1]; HRG protein concentration cut-off 3000 pg/mL, n 30): 0.24
- HR for PFS (pooled dose vs placebo) ([1]; HRG protein concentration cut-off 4000 pg/mL, n 27): 0.26
- HR for PFS (pooled dose vs placebo) ([1]; HRG protein concentration cut-off 5000 pg/mL, n 23): 0.40
- HR for PFS (pooled dose vs placebo) ([1]; HRG protein concentration cut-off 980 (Q3) pg/mL, n 46): 0.41
- treatment difference in PFS and OS ([1]; subjects with tumors expressing low HRG at a protein level (<980 pg/mL), pooled patritumab + erlotinib vs placebo + erlotinib): no clear treatment difference
- In vivo efficacy (SA) [3]: No
- In vivo efficacy (SA) [4]: Yes
- In vivo efficacy (SA) [5]: No
- In vivo efficacy (SA) [6]: Yes
- In vivo efficacy (SA) [7]: Yes
- In vivo efficacy (SA) [8]: No
- In vivo efficacy (SA) [9]: No
- In vivo efficacy (SA) [10]: No
- In vivo efficacy (SA) [11]: Yes
- In vivo efficacy (SA) [12]: Yes
- In vivo efficacy (SA) [13]: No
- In vivo efficacy (SA) [14]: No
- In vivo efficacy (SA) [15]: No
- In vivo efficacy (SA) [16]: No
- In vivo efficacy (SA) [17]: Yes
- In vivo efficacy (SA) [18]: Yes
- HER3 phosphorylation [19]: could be blocked
- Basal HER3 phosphorylation [20]: could be blocked
- AEs grade≥3, number of subjects [21]: 2 subjects
- patritumab-related AE reported in ≥2 subjects [21]: decreased appetite
- relation of grade≥3 AEs to patritumab [21]: none were related to patritumab
- tumor response [21]: No response was recorded
- DLTs ([21]; 18 mg/kg): no DLTs were seen; also recorded: No DLTs were reported
- subjects with serious AEs ([21]; four serious AEs): Three
- maximum tolerated dose ([22]; Phase 1 study): not reached
- dose limiting toxicity ([22]; in vivo): lack of dose limiting toxicity
